From US20230271950A1, “ANTIBACTERIAL PICOLINAMIDE COMPOUNDS” (University of Notre Dame Du Lac, priority 2020, published 2023)
In brackets after ≈: the same amount, converted by molar mass. Read-outs that look alike come from different tables or passages of the source.

Columns and labels:
C. difficile = test: MIC by broth microdilution against C. difficile strains; format: cell-based, Clostridioides difficile; details: for MIC: Clostridioides difficile
MRSA (NRS70, NRS119) = test: MIC against MRSA strains; format: cell-based, Staphylococcus aureus; details: Staphylococcus aureus
S. aureus ATCC29213 = test: MIC against MSSA; format: cell-based, Staphylococcus aureus; details: Staphylococcus aureus; MSSA ATCC 29213; Table 10, unit inferred; read-out: Activity (MIC) against S. aureus
E. faecium NCTC7171 = test: MIC against E. faecium; format: cell-based, Enterococcus faecium; details: Enterococcus faecium, NCTC7171; E. faecium NCTC 7171; Table 10, unit inferred; read-out: Activity (MIC) against E. faecium
Bacteroides fragilis = test: MIC against gut bacterium Bacteroides fragilis; format: cell-based; details: Bacteroides fragilis, Bacteroides fragilis strain HM-709; Table 7; read-out: MIC
Bifidobacterium longum = test: MIC against gut bacterium Bifidobacterium longum; format: cell-based; details: Bifidobacterium longum, Bifidobacterium longum strain HM-846; Table 7; read-out: MIC
Corynebacterium spp. = test: MIC against gut bacterium Corynebacterium spp.; format: cell-based; details: Corynebacterium, Corynebacterium spp. strain HM-784; Table 7
Fusobacterium nucleatum = test: MIC against gut bacterium Fusobacterium nucleatum; format: cell-based; details: Fusobacterium nucleatum, Fusobacterium nucleatum strain HM-992; Table 7; read-out: MIC
Lactobacillus reuteri = test: MIC against gut bacterium Lactobacillus reuteri; format: cell-based; details: Limosilactobacillus reuteri; Lactobacillus reuteri strain HM-102; Table 7; read-out: MIC
Lactobacillus gasseri = test: MIC against gut bacterium Lactobacillus gasseri; format: cell-based; details: Lactobacillus gasseri strain HM-644; Table 7; read-out: MIC
Veillonella sp. HM-49 = test: MIC against gut bacterium Veillonella sp.; format: cell-based; details: SP.HM49; Veillonella sp. strain HM-49; Table 7; read-out: MIC
Eubacterium sp. = test: MIC against gut bacterium Eubacterium sp.; format: cell-based; details: Eubacterium, Eubacterium sp. strain HM-178; Table 7; read-out: MIC
HeLa cells = test: XTT cytotoxicity assay with HeLa cells; format: cell-based; details: Homo sapiens, Table 6
Method: XTT assay. Cytotoxicity assays were performed in triplicate against HeLa cells (ATCC CCL-2). The IC50 values were calculated by nonlinear regression with GraphPad Prism 5 (San Diego, Calif.).
XTT assay. XTT assays were performed with HeLa cells (ATCC CCL-2) in triplicate, as previously described (Lancet 2008, 371, 1486). IC50 values were determined by nonlinear regression using GraphPad Prism 5 (San Diego, Calif.).

MIC (C. difficile; ATCC43255, ATCC 43255, ribotype 087, Table 2 (SAR^1), read-out: MIC C. difficile): 0.25 mg/L (≈ 0.748 µM)
MIC (C. difficile; ATCC43255, ATCC 43255, ribotype 087, Table 3 (SAR^2 and SAR^3), read-out: MIC C. difficile): 0.25 mg/L (≈ 0.748 µM)
MIC (C. difficile; ATCC43255, C. difficile ATCC43255, Table 7, read-out: MIC): 0.25 mg/L (≈ 0.748 µM)
MIC (C. difficile; ATCC43255, C. difficile ATCC 43255, read-out: MIC against C. difficile): 0.25 mg/L (≈ 0.748 µM)
MIC (C. difficile; ATCC43598, C. difficile ATCC43598, Table 7, read-out: MIC): 0.0625 mg/L (≈ 0.187 µM)
MIC (C. difficile; BAA1801, C. difficile BAA-1801, Table 7, read-out: MIC): 0.25 mg/L (≈ 0.748 µM)
MIC (C. difficile; BAA1803, C. difficile BAA-1803, Table 7, read-out: MIC): 0.5 mg/L (≈ 1.5 µM)
MIC (C. difficile; BAA1804, C. difficile BAA-1804, Table 7, read-out: MIC): 0.0625 mg/L (≈ 0.187 µM)
MIC (C. difficile; BAA1812, C. difficile BAA-1812, Table 7, read-out: MIC): 0.125 mg/L (≈ 0.374 µM)
MIC (C. difficile; BAA1814, C. difficile BAA-1814, Table 7, read-out: MIC): 0.125 mg/L (≈ 0.374 µM)
MIC (C. difficile; BAA1870, C. difficile BAA-1870, Table 7, read-out: MIC): ≤ 0.25 mg/L
MIC (C. difficile; C. difficile 23691 (VR, vancomycin-resistant), Table 7, read-out: MIC): 0.25 mg/L (≈ 0.748 µM)
MIC (C. difficile; C. difficile 23828 (FR, fidaxomicin-resistant), Table 7, read-out: MIC): 0.125 mg/L (≈ 0.374 µM)
MIC (C. difficile; C. difficile 24531 (VR, vancomycin-resistant), Table 7, read-out: MIC): 0.125 mg/L (≈ 0.374 µM)
MIC (C. difficile; C. difficile 24923 (VR, vancomycin-resistant), Table 7, read-out: MIC): 0.125 mg/L (≈ 0.374 µM)
MIC (C. difficile; C. difficile 26675 (MR, metronidazole-resistant), Table 7, read-out: MIC): 0.25 mg/L (≈ 0.748 µM)
MIC (C. difficile; C. difficile 27081 (FR, fidaxomicin-resistant), Table 7, read-out: MIC): 0.125 mg/L (≈ 0.374 µM)
MIC (C. difficile; C. difficile 27173 (MR, metronidazole-resistant), Table 7, read-out: MIC): 0.125 mg/L (≈ 0.374 µM)
MIC (C. difficile; C. difficile NR49292, Table 7, read-out: MIC): 0.125 mg/L (≈ 0.374 µM)
MIC (C. difficile; C. difficile NR49294, Table 7, read-out: MIC): 0.0625 mg/L (≈ 0.187 µM)
MIC (C. difficile; C. difficile NR49302, Table 7, read-out: MIC): 0.0625 mg/L (≈ 0.187 µM)
MIC (C. difficile; C. difficile NR49305, Table 7, read-out: MIC): 0.125 mg/L (≈ 0.374 µM)
MIC (C. difficile; C. difficile NR49310, Table 7, read-out: MIC): 0.0625 mg/L (≈ 0.187 µM)
MIC (C. difficile; C. difficile NR49318, Table 7, read-out: MIC): 0.125 mg/L (≈ 0.374 µM)
MIC (C. difficile; C. difficile, Table 8, read-out: MIC): 0.25 mg/L (≈ 0.748 µM)
MIC (MRSA (NRS70, NRS119); MRSA NRS70, Table 7, read-out: MIC): 0.25 mg/L (≈ 0.748 µM)
MIC (MRSA (NRS70, NRS119); NRS70 strain, Table 2 (SAR^1), read-out: MIC MRSA): 0.25 mg/L (≈ 0.748 µM)
MIC (MRSA (NRS70, NRS119); NRS70 strain, Table 3 (SAR^2 and SAR^3), read-out: MIC MRSA): 0.25 mg/L (≈ 0.748 µM)
MIC (S. aureus ATCC29213): 0.06 mg/L (≈ 0.18 µM)
MIC (E. faecium NCTC7171): 0.06 mg/L (≈ 0.18 µM)
MIC (Bacteroides fragilis): 1 mg/L (≈ 2.99 µM)
MIC (Bifidobacterium longum): > 16 mg/L
MIC (Corynebacterium spp.): 0.5 mg/L (≈ 1.5 µM)
MIC (Fusobacterium nucleatum): 8 mg/L (≈ 23.9 µM)
MIC (Lactobacillus reuteri): 8 mg/L (≈ 23.9 µM)
MIC (Lactobacillus gasseri): > 16 mg/L
MIC (Veillonella sp. HM-49): 4 mg/L (≈ 12 µM)
MIC (Eubacterium sp.): > 16 mg/L
SMILES: O=C(Nc1ncco1)c1ccnc(-c2ccc(Cl)c(Cl)c2)c1 [Compound 4, 2-(3,4-Dichlorophenyl)-N-(oxazol-2-yl)isonicotinamide]
Selectivity (C. difficile; MIC MRSA NRS70/MIC C. difficile ATCC43255, Table 7): 1
Selectivity (C. difficile; MIC MRSA/MIC C. difficile, Table 3): 1
Selectivity (C. difficile; Table 8): 1
IC50 (HeLa cells): 79.9 ± 1 mg/L (≈ 239 µM)
